Results taken from US6908899B2, “Pro-inflammatory fibrinopeptide” (U.S. Dept. of Veterans Affairs, priority 2001, dated 2005).
Where no end group is shown, it is not given here. [ ]: non-standard residue; d: D form. Pen = CC(C)(S)[C@H](N)C(=O)O

Experiments:
OA synovial cells = assay: PDTC inhibition of IL-1 and GPRP induction of ICAM-1 (ELISA); assay type: cell-based, human; conditions: PDTC pre-incubation 1.5 hours, IL-1 or GPRP overnight, ± SD, triplicate
Description: (§1) NF-kappaB activation is already well known to affect a broad array of immediate-early gene products, such as TNF, interleukins, chemokines and colony stimulating factors; genes that are tightly regulated during inflammation and wound healing. […] PDTC is an anti-oxidant that prevents NF-kappaB activation and its translocation to the nucleus (Reference 26). […] [table]

RA synovial cells = assay: as above; assay type: cell-based, human; conditions: for ICAM-1 O.D. 492: PDTC pre-incubation 1.5 hours, IL-1 or GPRP overnight, ± SD, triplicate
Description: as §1

RA patients = conditions: double blind clinical trial (Reference 29); cited from earlier work
foreskin fibroblasts = assay: ICAM-1 cell-ELISA (O.D. 492); assay type: cell-based, human; conditions: overnight; for ICAM-1 O.D. 492: Foreskin line, IL-1 0.5 ng/ml, GPRP or GPRP-amide 1 mg/ml, fibrinogen receptor peptide 0.1 mg/ml, FPA, FPB 10^−4 M
RA synovial fibroblasts [1] = assay: ICAM-1 cell-ELISA (O.D. 492); assay type: cell-based, human; conditions: for ICAM-1 O.D. 492: overnight, IL-1 0.5 ng/ml, GPRP or GPRP-amide 1 mg/ml, fibrinogen receptor peptide 0.1 mg/ml, FPA, FPB 10^−4 M; for Effect on ICAM-1 induction: synovial cell incubation with coagulation-related peptides
[2] = system: synovial cells from patients with osteoarthritis (OA); assay: ICAM-1 ELISA (O.D. 492); assay type: cell-based, human; conditions: OA line; overnight; IL-1 0.5 ng/ml, GPRP or GPRP-amide 1 mg/ml, fibrinogen receptor peptide 0.1 mg/ml, FPA, FPB 10^−4 M
RA synovial fibroblasts [3] = assay: Binding of biotinylated peptide by flow cytometry; parameters: species or system human; conditions: RA #16, Avidin-FITC
Description: Table 9 illustrates an analysis of the binding of biotinylated amino acid sequence 17-28 of human fibrinogen Aα Chain (SAC[KBtn]) to RA synovial fibroblasts by Flow Cytometry. The biotinylated control peptide (KREE-SEQ ID NO:3) represents corresponding sequences derived from the B/beta chain of fibrinogen following removal of Fibrinopeptide B.

fibrin polymerization = conditions: cited from earlier work
Sequence of fibrin polymerization (P02679 27-453, one chain of several): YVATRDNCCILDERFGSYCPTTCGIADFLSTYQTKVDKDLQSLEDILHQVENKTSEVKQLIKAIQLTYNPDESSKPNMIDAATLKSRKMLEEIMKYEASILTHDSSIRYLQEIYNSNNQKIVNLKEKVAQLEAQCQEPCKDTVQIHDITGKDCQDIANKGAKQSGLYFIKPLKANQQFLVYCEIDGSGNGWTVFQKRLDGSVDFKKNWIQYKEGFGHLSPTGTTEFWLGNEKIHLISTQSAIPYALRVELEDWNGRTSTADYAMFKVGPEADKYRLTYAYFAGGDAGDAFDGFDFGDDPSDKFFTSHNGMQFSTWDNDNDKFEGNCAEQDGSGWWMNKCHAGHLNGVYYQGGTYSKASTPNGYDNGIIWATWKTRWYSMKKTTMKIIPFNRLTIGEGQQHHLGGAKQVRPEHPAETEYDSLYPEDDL
Sequence of fibrin polymerization (P02671 20-639 isoform P02671-2 partner limits assumed, one chain of several): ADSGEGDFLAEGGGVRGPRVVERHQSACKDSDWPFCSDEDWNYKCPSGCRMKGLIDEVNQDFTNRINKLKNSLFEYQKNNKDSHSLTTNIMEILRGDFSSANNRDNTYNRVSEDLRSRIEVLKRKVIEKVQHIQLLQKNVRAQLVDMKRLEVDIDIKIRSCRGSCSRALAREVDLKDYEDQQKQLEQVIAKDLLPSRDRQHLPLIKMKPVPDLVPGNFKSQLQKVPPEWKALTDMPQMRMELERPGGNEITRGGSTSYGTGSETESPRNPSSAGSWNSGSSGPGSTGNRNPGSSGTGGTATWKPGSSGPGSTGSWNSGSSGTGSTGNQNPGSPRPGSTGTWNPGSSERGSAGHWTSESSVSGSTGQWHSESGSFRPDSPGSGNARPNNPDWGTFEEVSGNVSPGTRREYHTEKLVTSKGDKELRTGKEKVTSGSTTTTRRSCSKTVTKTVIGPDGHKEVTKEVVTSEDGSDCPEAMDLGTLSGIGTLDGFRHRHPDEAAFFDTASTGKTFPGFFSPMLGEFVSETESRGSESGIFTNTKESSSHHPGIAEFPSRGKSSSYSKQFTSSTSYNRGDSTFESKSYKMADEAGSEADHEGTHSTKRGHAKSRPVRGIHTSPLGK

Synovial cells = assay: SAC competition assay by flow cytometry; assay type: binding, human; conditions: for Mean (fluorescence of bound SAC[KBtn]): Avidin-FITC
Description: Thus, labeled peptide could facilitate the isolation, identification and characterization of its receptor, through standard immunological techniques such as immunohistochemistry, flow cytometry and immunoprecipitation.

[4] = system: RA derived synovial cells; assay: In vitro T cell adhesion assay; assay type: cell-based, human; conditions: IL-1 beta 1 ng/ml overnight, ± SD, triplicate wells
[5] = system: foreskin fibroblast cells; assay: In vitro T cell adhesion assay; assay type: cell-based, human; conditions: Foreskin line; IL-1 beta 1 ng/ml overnight; ± SD, triplicate wells
[6] = system: OA derived synovial cells; assay: In vitro T cell adhesion assay; assay type: cell-based, human; conditions: OA line 15; IL-1 beta 1 ng/ml overnight; ± SD, triplicate wells
monocytes = monocytes stimulated with PHA; for comparison; cited from earlier work
RA synovial fibroblasts [7] = assay: GRO-alpha ELISA on cell culture supernatants; assay type: cell-based, human; conditions: RA line 7
Description: I used commercial ELISA kits to assay cell culture supernatants of RA fibroblasts that were cultured for both 24 and 48 hours with or without peptide.

[8] = unlabeled competitor 2.5 mg for 3 hours, then labeled SAC[KBtn] for 1 hour

## S=C(S)N1CCCC1 [PDTC, pyrrolidinedithio-carbamate]
OA synovial cells; OA line 2
  ICAM-1 O.D. 492: 0.65 ± .03
OA synovial cells; OA line 8
  ICAM-1 O.D. 492: 0.55 ± .04
RA synovial cells; RA line 5
  ICAM-1 O.D. 492: 0.75 ± .06
RA synovial cells; RA line 6
  ICAM-1 O.D. 492: 0.61 ± .02
RA synovial cells; inclusion of PDTC
  Effect on increase in ICAM-1 expression induced by Interleukin-1 and by GPRP: stopped the entire increase in ICAM-1 expression

## C[C@]12Cc3c[nH]nc3C[C@@H]1CC[C@@H]1[C@@H]2CC[C@@]2(C)[C@H]1CC[C@]2(C)O [stanozolol]
RA patients
  Clinical outcome in RA patients: clinical benefit

## Ac-[Pen]RGDC (cysteine pairing not given here) [Fib. Recept. Pept., reference compound]
Foreskin fibroblasts
  ICAM-1 O.D. 492: 0.73 ± .08
RA synovial fibroblasts [1]; RA line 1
  ICAM-1 O.D. 492: 0.56 ± .02
RA synovial fibroblasts [1]; RA line 2
  ICAM-1 O.D. 492: 0.42 ± .01
[2]
  ICAM-1 O.D. 492: 0.38 ± .02

## FPA: amino acids 1 through 16 of the fibrinogen A/alpha chains cleaved off by thrombin (ADSGEGDFLAEGGGVR; Fibrinopeptide A; UniProt P02671 20-35, looked up) [reference compound]
Foreskin fibroblasts
  ICAM-1 O.D. 492: 0.69 ± .02
RA synovial fibroblasts [1]; RA line 1
  ICAM-1 O.D. 492: 0.61 ± .05
RA synovial fibroblasts [1]; RA line 2
  ICAM-1 O.D. 492: 0.43 ± .03
RA synovial fibroblasts [1]
  Effect on ICAM-1 induction: no effect
[2]
  ICAM-1 O.D. 492: 0.31 ± .005

## FPB: Fibrinopeptide B, coagulation-related peptide (QGVNDNEEGFFSAR; ends and bridges not checked; UniProt P02675 31-44, looked up) [reference compound]
Foreskin fibroblasts
  ICAM-1 O.D. 492: 0.80 ± .02
RA synovial fibroblasts [1]; RA line 1
  ICAM-1 O.D. 492: 0.67 ± .04
RA synovial fibroblasts [1]; RA line 2
  ICAM-1 O.D. 492: 0.47 ± .02
RA synovial fibroblasts [1]
  Effect on ICAM-1 induction: no effect
[2]
  ICAM-1 O.D. 492: 0.41 ± .04

## GHRPLDKKREE[KBtn] (GHRPLDKKREEK) [KREE [KBtn], biotinylated control peptide derived from the B/beta chain of fibrinogen, reference compound]
RA synovial fibroblasts [3]; 100 ug biotinylated peptide
  % Cells Positive: 10.6%
  Mean Fluorescent Channel: 20.37

## GPRP-amide: GPRP with the carboxyl group at the end of Pro4 changed to an amide group (OH to NH2) (GPRP-NH2)
Fibrin polymerization; Reference 20
  Effectiveness at inhibiting polymerization relative to H-Gly-Pro-Arg-Pro-OH: approximately three and one-half
Foreskin fibroblasts
  ICAM-1 O.D. 492: 0.80 ± .01
RA synovial fibroblasts [1]; RA line 1
  ICAM-1 O.D. 492: 0.65 ± .02
RA synovial fibroblasts [1]; RA line 2
  ICAM-1 O.D. 492: 0.49 ± .02
RA synovial fibroblasts [1]; amide analog substituted for GPRP
  Induction of ICAM-1 in synovial fibroblasts: totally ineffective
[2]
  ICAM-1 O.D. 492: 0.44 ± .01

## GPRVVERHQSAC (Unknown. Obtained from a commercial source.)
Synovial cells; unlabeled competitor
  Competition with biotin-labeled SAC for binding to human synovial fibroblasts: can compete
Synovial cells; [8]
  Mean (fluorescence of bound SAC[KBtn]): 36.30

## GPRVVERHQSAC[KBtn] (GPRVVERHQSACK) [SAC [KBtn]]
RA synovial fibroblasts [3]; 100 ug biotinylated peptide
  % Cells Positive: 86.3%
  Mean Fluorescent Channel: 257.9
RA synovial fibroblasts [3]; 200 ug biotinylated peptide
  % Cells Positive: 80.0%
  Mean Fluorescent Channel: 125.1
Synovial cells; labeled SAC[KBtn] without competitor
  Mean (fluorescence of bound SAC[KBtn]): 51.20

## Gly-Pro-Arg [reference compound]
Fibrin polymerization; literature (Reference 25)
  Inhibition of fibrin polymerization: functions well as a polymerization inhibitor

## IL-1: cytokine, an inducer of ICAM-1, positive control [reference compound]
[4]; RA line 7
  Adherent T cell numbers: 116 ± 14
[4]; RA line 8
  Adherent T cell numbers: 58 ± 21
Foreskin fibroblasts
  ICAM-1 O.D. 492: 1.77 ± .13
[5]
  Adherent T cell numbers: 94 ± 16
OA synovial cells; OA line 2
  ICAM-1 O.D. 492: 1.60 ± .03
OA synovial cells; OA line 8
  ICAM-1 O.D. 492: 1.51 ± .05
RA synovial cells; RA line 5
  ICAM-1 O.D. 492: 1.88 ± .05
RA synovial cells; RA line 6
  ICAM-1 O.D. 492: 1.80 ± .04
[6]
  Adherent T cell numbers: 66 ± 19
RA synovial fibroblasts [1]; RA line 1
  ICAM-1 O.D. 492: 1.74 ± .08
RA synovial fibroblasts [1]; RA line 2
  ICAM-1 O.D. 492: 1.18 ± .03
[2]
  ICAM-1 O.D. 492: 1.36 ± .03

## phytohemagglutinin
monocytes
  Increase of IL-8 production: approximately three

B1: Fibrinogen: plasma protein precursor of fibrin; unlabeled competitor in Table 10 (protein)
chain 1: ADSGEGDFLAEGGGVRGPRVVERHQSACKDSDWPFCSDEDWNYKCPSGCRMKGLIDEVNQDFTNRINKLKNSLFEYQKNNKDSHSLTTNIMEILRGDFSSANNRDNTYNRVSEDLRSRIEVLKRKVIEKVQHIQLLQKNVRAQLVDMKRLEVDIDIKIRSCRGSCSRALAREVDLKDYEDQQKQLEQVIAKDLLPSRDRQHLPLIKMKPVPDLVPGNFKSQLQKVPPEWKALTDMPQMRMELERPGGNEITRGGSTSYGTGSETESPRNPSSAGSWNSGSSGPGSTGNRNPGSSGTGGTATWKPGSSGPGSTGSWNSGSSGTGSTGNQNPGSPRPGSTGTWNPGSSERGSAGHWTSESSVSGSTGQWHSESGSFRPDSPGSGNARPNNPDWGTFEEVSGNVSPGTRREYHTEKLVTSKGDKELRTGKEKVTSGSTTTTRRSCSKTVTKTVIGPDGHKEVTKEVVTSEDGSDCPEAMDLGTLSGIGTLDGFRHRHPDEAAFFDTASTGKTFPGFFSPMLGEFVSETESRGSESGIFTNTKESSSHHPGIAEFPSRGKSSSYSKQFTSSTSYNRGDSTFESKSYKMADEAGSEADHEGTHSTKRGHAKSRPV
chain 2: QGVNDNEEGFFSARGHRPLDKKREEAPSLRPAPPPISGGGYRARPAKAAATQKKVERKAPDAGGCLHADPDLGVLCPTGCQLQEALLQQERPIRNSVDELNNNVEAVSQTSSSSFQYMYLLKDLWQKRQKQVKDNENVVNEYSSELEKHQLYIDETVNSNIPTNLRVLRSILENLRSKIQKLESDVSAQMEYCRTPCTVSCNIPVVSGKECEEIIRKGGETSEMYLIQPDSSVKPYRVYCDMNTENGGWTVIQNRQDGSVDFGRKWDPYKQGFGNVATNTDGKNYCGLPGEYWLGNDKISQLTRMGPTELLIEMEDWKGDKVKAHYGGFTVQNEANKYQISVNKYRGTAGNALMDGASQLMGENRTMTIHNGMFFSTYDRDNDGWLTSDPRKQCSKEDGGGWWYNRCHAANPNGRYYWGGQYTWDMAKHGTDDGVVWMNWKGSWYSMRKMSMKIRPFFPQQ
chain 3: YVATRDNCCILDERFGSYCPTTCGIADFLSTYQTKVDKDLQSLEDILHQVENKTSEVKQLIKAIQLTYNPDESSKPNMIDAATLKSRKMLEEIMKYEASILTHDSSIRYLQEIYNSNNQKIVNLKEKVAQLEAQCQEPCKDTVQIHDITGKDCQDIANKGAKQSGLYFIKPLKANQQFLVYCEIDGSGNGWTVFQKRLDGSVDFKKNWIQYKEGFGHLSPTGTTEFWLGNEKIHLISTQSAIPYALRVELEDWNGRTSTADYAMFKVGPEADKYRLTYAYFAGGDAGDAFDGFDFGDDPSDKFFTSHNGMQFSTWDNDNDKFEGNCAEQDGSGWWMNKCHAGHLNGVYYQGGTYSKASTPNGYDNGIIWATWKTRWYSMKKTTMKIIPFNRLTIGEGQQHHLGGAKQAGDV
RA synovial fibroblasts [7]
  GRO-alpha: 8000 pg/mL
RA synovial fibroblasts [7]; versus control
  GRO-alpha Fold Increase: 145X
Synovial cells; [8]
  Mean (fluorescence of bound SAC[KBtn]): 21.63

B2: interferon γ: positive control for foreskin fibroblasts (protein, UniProt P01579 24-161, looked up)
Interferon gamma: QDPYVKEAENLKKYFNAGHSDVADNGTLFLGILKNWKEESDRKIMQSQIVSFYFKLFKNFKDDQSIQKSVETIKEDMNVKFFNSNKKKRDDFEKLTNYSVTDLNVQRKAIHELIQVMAELSPAAKTGKRKRSQMLFRG
Foreskin fibroblasts; Foreskin fibroblasts, fibrin clots 0.6 mg/ml, GPRP 1 mg/ml or interferon γ 200 U/ml, mean ± SD
  ICAM-1 expression O.D. 492: 1.57 ± .13
